In patent EP4541796A1, “EXATECAN DERIVATIVES AND USE THEREOF” (Hangzhou Adcoris Biopharma Co., Ltd, priority 2022, dated 2024):
pIC50: −log10 of the molar value. Read-outs that look alike come from different tables or passages of the source.

Experiments:
[1] = system: breast adenocarcinoma cells SK-BR-3; assay: In vitro inhibitory activity of compounds (small molecule toxins), CCK-8 cell growth assay; format: cell-based; details: Homo sapiens; Inhibitory activity against SK-BR-3; small molecules, 72 h incubation
Description: (§1) Human esophageal cancer cells OE33, and human breast adenocarcinoma cells SK-BR-3 were cultured in RPMI1640 (Cellmax) containing 10% fetal bovine serum (Cellmax), respectively. Cells in the exponential growth phase were diluted to a concentration of 1×10^5cells/mL by culture medium and added to 96-well cell culture plates at 100µL per well, then incubated overnight in a 37°C incubator with 5% CO2. On the following day, the small molecules were diluted with culture medium to 10,000 nM, 2,000 nM, 400 nM, 80 nM, 16 nM, 3.2 nM, 0.64 nM, 0.13 nM, respectively, and the diluted compounds were added to 96-well cell culture plates at 2 µL per well, with three replicate wells set-up for each concentration, and for the negative and blank control groups, in which the compounds had not been added, 2 µL of dilution was added per well. After the addition, the plates were returned to the 37°C incubator with 5% CO2 to continue incubation for 72 h. After incubation, the cell culture plates were removed, and the culture medium was aspirated using a pipette. Then, 100µL of culture medium containing 10% CCK-8 was added to each well, and the plates were incubated at 37°C for 3 hours. After incubation, the plates were removed, kept in the dark, and placed in ELISAplate. Absorbance was measured at 630nm as the reference wavelength and 450nm as the test wavelength. The IC50 values (Tables 1-3) were calculated using the four-parameter logistic regression method in GraphPad, based on the absorbance values. DNA topoisomerase I inhibitor Dxd was used as positive control drug.

[2] = system: esophageal cancer cells OE33; assay: as above; format: cell-based; details: Homo sapiens; for IC50: Inhibitory activity against OE33, small molecules, 72 h incubation, read-out: IC50/nM; for pIC50: OE33 cells, read-out: IC50 values for inhibiting the growth of esophageal cancer cells
Description: as §1

SMILES | IC50 [1] [nM] | IC50 [2] [nM] | pIC50 [2]
CC[C@@]1(O)C(=O)OCc2c1cc1n(c2=O)Cc2c-1nc1cc(F)c(C)c3c1c2[C@@H](NC(=O)NN)CC3 [Compound 1, Exatecan-N-aminourea] | 50 to 100 | 50 to 100 | –
CC[C@@]1(O)C(=O)OCc2c1cc1n(c2=O)Cc2c-1nc1cc(F)c(C)c3c1c2[C@@H](NC(=O)N(C)N)CC3 [Compound 2, Exatecan-N-methyl-N-aminourea] | – | < 50 | > 8.00
CC[C@@]1(O)C(=O)OCc2c1cc1n(c2=O)Cc2c-1nc1cc(F)c(C)c3c1c2[C@@H](NC(=O)N(C)NC)CC3 [Compound 3, Exatecan-N',N-dimethylaminourea] | < 50 | < 50 | > 8.00
CC[C@@]1(O)C(=O)OCc2c1cc1n(c2=O)Cc2c-1nc1cc(F)c(C)c3c1c2[C@@H](NC(=O)C(=O)NN)CC3 [Compound 4, Exatecan-N'-amino oxalyldiamine] | 50 to 100 | 50 to 100 | –
CC[C@@]1(O)C(=O)OCc2c1cc1n(c2=O)Cc2c-1nc1cc(F)c(C)c3c1c2[C@@H](NC(=O)C(=O)N(C)N)CC3 [Compound 5, Exatecan N'-amino-N-methyloxalyldiamine] | < 50 | 50 to 100 | –
CC[C@@]1(O)C(=O)OCc2c1cc1n(c2=O)Cc2c-1nc1cc(F)c(C)c3c1c2[C@@H](NC(=O)CNO)CC3 [Compound 6, 2-hydroxyaminoacetyl exatecan] | – | 50 to 100 | –
CC[C@@]1(O)C(=O)OCc2c1cc1n(c2=O)Cc2c-1nc1cc(F)c(C)c3c1c2[C@@H](NC(=O)CNOC)CC3 [Compound 7, 2-methoxyaminoacetyl exatecan] | – | < 50 | > 8.00
CC[C@@]1(O)C(=O)OCc2c1cc1n(c2=O)Cc2c-1nc1cc(F)c(C)c3c1c2[C@@H](NC(=O)CONC)CC3 [Compound 8, 2-methylaminooxyacetyl exatecan] | < 50 | < 50 | > 8.00
CC[C@@]1(O)C(=O)OCc2c1cc1n(c2=O)Cc2c-1nc1cc(F)c(C)c3c1c2[C@@H](NC(=O)CN(C)N)CC3 [Compound 9, 2-N-methyl-N-aminoacetyl exatecan] | – | < 50 | > 8.00
CC[C@@]1(O)C(=O)OCc2c1cc1n(c2=O)Cc2c-1nc1cc(F)c(C)c3c1c2[C@@H](NC(=O)CN(C)NC)CC3 [Compound 10, 2-N-methyl-N-methylaminoacetyl exatecan] | – | 50 to 100 | –
CC[C@@]1(O)C(=O)OCc2c1cc1n(c2=O)Cc2c-1nc1cc(F)c(C)c3c1c2[C@@H](NC(=O)CN(C)O)CC3 [Compound 11, 2-N-methylhydroxyaminoacetyl exatecan] | – | 50 to 100 | –
CCONCC(=O)N[C@H]1CCc2c(C)c(F)cc3nc4c(c1c23)Cn1c-4cc2c(c1=O)COC(=O)[C@]2(O)CC [Compound 12, 2-ethoxyaminoacetyl exatecan] | – | 50 to 100 | –
CC[C@@]1(O)C(=O)OCc2c1cc1n(c2=O)Cc2c-1nc1cc(F)c(C)c3c1c2[C@@H](NC(=O)C1(N)COC1)CC3 [Compound 13, 3-aminooxetane-3-acetyl exatecan] | < 50 | < 50 | > 8.00
CC[C@@]1(O)C(=O)OCc2c1cc1n(c2=O)Cc2c-1nc1cc(F)c(C)c3c1c2[C@@H](NC(=O)CO)CC3 [Dxd, reference compound] | < 50 | < 50 | –
